# Assay results reported in patent US10881749B2, “Probes and methods of imaging a bacterial infection” (The Board of Trustees of the Leland Stanford Junior …, priority 2015, dated 2021).
# Assays:
# E. coli [1] = experiment: Uptake of tracer in E. coli bacterial culture, with maltose competition; format: cell-based, Escherichia coli; settings: for blocking of uptake in E. coli by co-incubation with cold maltose: co-incubation with 1 mM of cold maltose, p<0.0003; for accumulation (uptake) of tracer in E. coli over time: in vitro bacterial culture
# Procedure: FIG. 2.1 is a graph showing uptake of 6″-[^18F]fluoromaltotriose in vitro in E coli at 15 minutes, 30 minutes, and 30 minutes with 1 mM of maltose.
# (§1) 6″-[^18F]-fluoromaltotriose (FIG. 1.1B) was synthesized. The uptake of 6″-[^18F]-fluoromaltotriose was evaluated in E. coli. […] The uptake in E. coli could also be blocked by a co-incubation with 1 mM of cold maltose (98% blocking, p<0.0003), the natural substrate of the transporter, confirming that the tracer was a substrate of the bacterial maltose transporter. 10^8 colony-forming units (CFU) of E. coli was then inoculated in the right thigh muscle of nude mice (n=4). 24 h later, 200 uCi of the 6″-[^18F]-fluoromaltotriose was administered via tail vein and dynamic PET/CT scans were obtained over the course of one hour. […] The route of clearance of the tracer is renal which makes it suitable for clinical translation.
# In regard to FIG. 5.1A, 6″-[^18F]fluoromaltotriose was synthesized from precursor per-O-acetyl-6″-deoxy-6″-nosyl-maltotriose (1). Precursor 1 was prepared from per-O-acetyl-6″-hydroxymaltotriose via a nosylation reaction. This method utilizes the reaction between the leaving group nosylate in precursor 1 and anhydrous [^18F]KF/Kryptofix 2.2.2 in acetonitrile at 85° C. for 15 min to give per-O-acetyl-6″-deoxy-6″-[^18F]fluoromaltotriose (2). Basic hydrolysis of the acetyl protecting groups in 2 yielded 6″-[^18F]fluoromaltotriose (3). Also, cold 6″-fluoromaltotriose (for comparison with 6″ [^18F]fluoromatotriose) was prepared from per-O-acetyl-6-hydroxymaltotriose via a DAST reaction followed by a basic hydrolysis. Escherichia-coli uptake of 6″-[^18F]fluoromaltotriose was evaluated in bacterial culture.
# We have successfully synthesized 6″-[^18F]fluoromaltotriose in 4-7% radiochemical yield (decay corrected) with 95% chemical and radio-chemical purities. Total synthesis time was 125 min. […] This observation is consistent with 6″-[^18F]fluoromaltotriose being recognized and transported by the bacteria in a manner similar to maltose.
# E. coli [2] = experiment: PET/CT imaging of E. coli infection in thigh muscle of nude mice; format: in vivo; settings: for route of clearance: mice, intravenous (tail vein)
# Procedure: FIGS. 1.1A-B show PET/CT scan of a mouse that had been injected with 200 μCi of 6″-[^18F]-fluoromaltotriose. The arrow indicates the site of infection.
# as §1, with “(n=4).” for “(n=4). 24 h later, 200 uCi of the 6″-[^18F]-fluoromaltotriose was administered via tail vein and dynamic PET/CT scans were obtained over the course of one hour.”
# [3] = Biodistribution and pharmacokinetics in mice; format: in vivo; settings: FIG. 3.1
# Description: FIG. 3.1 illustrates a graph comparing the biodistribution and pharmacokinetics of 6-fluoromaltose and 6″-fluoromaltotriose in mice.
# FIG. 3.1, example 3, illustrates a graph comparing the biodistribution and pharmacokinetics of 6-fluoromaltose and 6″-Fluoromaltotriose in mice.
# [4] = listed as 6″-[^18F]fluoromaltotriose
smiles,measurement,setting,value
"OC[C@H]1O[C@H](O[C@H]2[C@H](O)[C@@H](O)C(O)O[C@@H]2CO)[C@H](O)[C@@H](O)[C@@H]1O[C@H]1O[C@H](C[18F])[C@@H](O)[C@H](O)[C@H]1O (some centres unmarked) [6″-[^18F]-fluoromaltotriose, 6″-[^18F]fluoromaltotriose]",blocking of uptake in E. coli by co-incubation with cold maltose,E. coli [1],98%
same,blocking of uptake in E. coli by co-incubation with cold maltose,E. coli [1]; [4],90%
same,accumulation (uptake) of tracer in E. coli over time,E. coli [1],increased over time
same,accumulation (uptake) of tracer in E. coli over time,E. coli [1]; listed as 6″-[^19F]fluoromaltotriose,time dependent
same,imaging of viable bacteria,E. coli [2]; 2 hours after implantation (FIG. 1.2),can image 10^8 CFU of viable bacteria
same,accumulation of tracer at the site of infection (PET/CT image),"E. coli [2]; PET/CT image at 1 hour, 24 h after inoculation",clearly accumulated in the infected leg
same,uptake in infected muscle relative to contra-lateral muscle,"E. coli [2]; ROI analysis, PET/CT, p<0.05",3.1 fold
same,route of clearance,E. coli [2],renal
same,route of clearance,E. coli [2]; [4],predominantly renal clearance
same,average uptake in infected muscle (ROI analysis),"E. coli [2]; nude mice, 10^8 CFU E. coli in right thigh muscle, 24 h later 200 uCi via tail vein, PET/CT at 1 hour, mean±SD",4.7±1.3 % ID/g
same,tissue uptake as compared to first generation tracer 6-fluoromaltose,[3],"reduced blood, heart, liver, lung and muscle uptake"
